Measurements taken from ChEMBL document CHEMBL5360558, “Molecular design, synthesis and anticancer activity of new thiopyrano[2,3-d]thiazoles based on 5-hydroxy-1,4-naphthoquinone (juglone)” (Eur J Med Chem, 2023).
Active and inactive are the calls of the source. The calls are words filed in the database; no cut-off is given here.

Columns and labels:
M14 = experiment: Growth inhibition of human M14 cells incubated for 48 hrs by sulforhodamine B spectrophotometric assay; format: functional
SF-295 = experiment: Growth inhibition against human SF-295 cells assessed as lethal concentration incubated for 48 hrs by sulforhodamine B spectrophotometric assay; format: functional; conditions: read-out: LC50 (the source's name)
U-251 = experiment: Growth inhibition against human U-251 cells assessed as lethal concentration incubated for 48 hrs by sulforhodamine B spectrophotometric assay; format: functional; conditions: read-out: LC50 (the source's name)
Hs-578T = experiment: Growth inhibition against human Hs-578T cells assessed as lethal concentration incubated for 48 hrs by sulforhodamine B spectrophotometric assay; format: functional; conditions: read-out: LC50 (the source's name)
SF-268 = experiment: Growth inhibition against human SF-268 cells assessed as lethal concentration incubated for 48 hrs by sulforhodamine B spectrophotometric assay; format: functional; conditions: read-out: LC50 (the source's name)
SK-OV-3 [1] = experiment: Growth inhibition against human SK-OV-3 cells assessed as total growth inhibitory concentration incubated for 48 hrs by sulforhodamine B spectrophotometric assay; format: functional
NCI-H322M [2] = experiment: Growth inhibition of human NCI-H322M cells incubated for 48 hrs by sulforhodamine B spectrophotometric assay; format: functional
SNB-75 = experiment: Growth inhibition against human SNB-75 cells assessed as total growth inhibitory concentration incubated for 48 hrs by sulforhodamine B spectrophotometric assay; format: functional
CAKI-1 = experiment: Growth inhibition against human CAKI-1 cells assessed as lethal concentration incubated for 48 hrs by sulforhodamine B spectrophotometric assay; format: functional; conditions: read-out: LC50 (the source's name)
K562 [3] = experiment: Cytotoxicity against human K562 cells assessed as cell growth inhibition incubated for 72 hrs by MTT assay; format: functional, cell-based; conditions: K562, 72 h
[4] = Cytotoxicity against human HaCaT cells assessed as cell growth inhibition incubated for 72 hrs by MTT assay; format: toxicity, cell-based; conditions: HaCaT cells
RXF 393 = experiment: Growth inhibition against human RXF 393 cells assessed as lethal concentration incubated for 48 hrs by sulforhodamine B spectrophotometric assay; format: functional; conditions: read-out: LC50 (the source's name)
CCRF-CEM [5] = experiment: Induction of cell cycle arrest in human CCRF-CEM cells assessed as accumulation of cells at sub-G1 phase at 20.7 uM incubated for 24 hrs by propidium iodide staining based flow cytometry analysis (reference value: 2.36 +/- 0.049%); format: functional
OVCAR-5 = experiment: Growth inhibition against human OVCAR-5 cells assessed as total growth inhibitory concentration incubated for 48 hrs by sulforhodamine B spectrophotometric assay; format: functional
HT-29 = experiment: Growth inhibition against human HT-29 cells assessed as total growth inhibitory concentration incubated for 48 hrs by sulforhodamine B spectrophotometric assay; format: functional
K562 [6] = experiment: Growth inhibition of human K562 cells incubated for 48 hrs by sulforhodamine B spectrophotometric assay; format: functional
SK-OV-3 [7] = experiment: Growth inhibition of human SK-OV-3 cells incubated for 48 hrs by sulforhodamine B spectrophotometric assay; format: functional
HOP-92 = experiment: Growth inhibition of human HOP-92 cells incubated for 48 hrs by sulforhodamine B spectrophotometric assay; format: functional
KB 3-1 [8] = experiment: Induction of apoptosis in human KB 3-1 cells assessed as increase in BIP protein expression at 0.5 to 5 uM incubated for 3 hrs by Western blotting assay; format: functional, cell-based; conditions: dose 0.5-5 µM
DU-145 = experiment: Anticancer activity against human DU-145 cells assessed as cell growth at 10 uM incubated for 48 hrs by sulforhodamine B assay; format: functional; conditions: read-out: Activity
KM12 = experiment: Growth inhibition against human KM12 cells assessed as total growth inhibitory concentration incubated for 48 hrs by sulforhodamine B spectrophotometric assay; format: functional
Salmon testes DNA = experiment: Displacement of methyl green from salmon sperm DNA assessed as DNA intercalation at 10 uM incubated for 24 hrs by fluorescence plate reader method relative to control; format: nucleic-acid assay; conditions: Salmo salar
HCT-15 = experiment: Growth inhibition of human HCT-15 cells incubated for 48 hrs by sulforhodamine B spectrophotometric assay; format: functional
KB 3-1 [9] = experiment: Induction of cell morphological changes in human KB 3-1 cells at 1 uM incubated for 24 hrs by Hoechst-33342 staining based fluorescent microscopy analysis; format: functional
NCI/ADR-RES = experiment: Growth inhibition against human NCI/ADR-RES cells assessed as lethal concentration incubated for 48 hrs by sulforhodamine B spectrophotometric assay; format: functional; conditions: read-out: LC50 (the source's name)
UACC-257 = experiment: Growth inhibition against human UACC-257 cells assessed as total growth inhibitory concentration incubated for 48 hrs by sulforhodamine B spectrophotometric assay; format: functional
HCC 2998 = experiment: Growth inhibition of human HCC 2998 cells incubated for 48 hrs by sulforhodamine B spectrophotometric assay; format: functional
HL-60 = experiment: Growth inhibition against human HL-60 cells assessed as total growth inhibitory concentration incubated for 48 hrs by sulforhodamine B spectrophotometric assay; format: functional
MDA-MB-231 = experiment: Induction of apoptosis in human MDA-MB-231 cells at 5 uM incubated for 24 hrs by Annexin-V-FITC/propidium iodide staining based flow cytometry analysis (reference value: 8.9%); format: functional
A498 = experiment: Growth inhibition against human A498 cells assessed as lethal concentration incubated for 48 hrs by sulforhodamine B spectrophotometric assay; format: functional; conditions: read-out: LC50 (the source's name)
OVCAR-8 = experiment: Growth inhibition against human OVCAR-8 cells assessed as total growth inhibitory concentration incubated for 48 hrs by sulforhodamine B spectrophotometric assay; format: functional
T47D [10] = experiment: Growth inhibition against human T47D cells assessed as lethal concentration incubated for 48 hrs by sulforhodamine B spectrophotometric assay; format: functional; conditions: read-out: LC50 (the source's name)
CCRF-CEM [11] = experiment: Induction of cell cycle arrest in human CCRF-CEM cells assessed as accumulation of cells at M phase at 4.14 uM incubated for 24 hrs by propidium iodide staining based flow cytometry analysis (reference value: 1.97 +/- 0.042%); format: functional
NCI-H322M [12] = experiment: Growth inhibition against human NCI-H322M cells assessed as total growth inhibitory concentration incubated for 48 hrs by sulforhodamine B spectrophotometric assay; format: functional
[13] = Acute toxicity in C57BL/6 mouse assessed as ratio of kidney weight to body weight at 20 mg/kg,ip administration and observed after 22 days (reference value: 1.39 +/- 0.09); format: organism-based; conditions: in vivo, 528 h, time 22 day
T47D [14] = experiment: Growth inhibition against human T47D cells assessed as total growth inhibitory concentration incubated for 48 hrs by sulforhodamine B spectrophotometric assay; format: functional
[15] = Acute toxicity in C57BL/6 mouse assessed as lymphocyte count at 20 mg/kg,ip administration and observed after 22 days; format: organism-based; conditions: in vivo, 528 h, time 22 day
MDA-MB-468 = experiment: Growth inhibition of human MDA-MB-468 cells incubated for 48 hrs by sulforhodamine B spectrophotometric assay; format: functional
[16] = Acute toxicity in C57BL/6 mouse assessed as ratio of neutrophil to lymphocyte count at 20 mg/kg,ip administration and observed after 22 days; format: organism-based; conditions: in vivo, 528 h, time 22 day
TK-10 = experiment: Growth inhibition against human TK-10 cells assessed as lethal concentration incubated for 48 hrs by sulforhodamine B spectrophotometric assay; format: functional; conditions: read-out: LC50 (the source's name)
LOX IMVI = experiment: Growth inhibition against human LOX IMVI cells assessed as lethal concentration incubated for 48 hrs by sulforhodamine B spectrophotometric assay; format: functional; conditions: read-out: LC50 (the source's name)
KB 3-1 [17] = experiment: Cytotoxicity against human KB 3-1 cells assessed as cell growth inhibition incubated for 72 hrs by MTT assay; format: functional, cell-based; conditions: KB 3-1, 72 h
CCRF-CEM [18] = experiment: Growth inhibition against human CCRF-CEM cells assessed as total growth inhibitory concentration incubated for 48 hrs by sulforhodamine B spectrophotometric assay; format: functional

For `O=C1C2=C(C(=O)c3c(O)cccc31)C(c1ccco1)c1sc(=O)[nH]c1S2` (stereo not drawn), the GI50 (M14) was 1060 nM, the CC50 (SF-295) was 6.5 µM and the CC50 (U-251) was 35.7 µM. The CC50 (Hs-578T) was greater than 100 µM, the CC50 (SF-268) was greater than 100 µM and the TGI (SK-OV-3 [1]) was 29.6 µM. The GI50 (NCI-H322M [2]) was 1710 nM, the TGI (SNB-75) was 7.61 µM and the CC50 (CAKI-1) was 37.3 µM. For the same compound, the IC50 (K562 [3]) was 5.98 µM, the IC50 at 72 h [4] was 37.2 µM and the CC50 (RXF 393) was 20.1 µM. For the same compound, the Activity (CCRF-CEM [5]) was 5.8%, the TGI (OVCAR-5) was 4.58 µM and the TGI (HT-29) was 9.25 µM. It also gave a GI50 (K562 [6]) of 2840 nM, a GI50 (SK-OV-3 [7]) of 15.5 µM and a GI50 (HOP-92) of 3.15 µM. The Activity (KB 3-1 [8]) was “inactive”, the growth at 10 µM (DU-145) was -93.9% and the TGI (KM12) was 31.3 µM. The Activity (Salmon testes DNA) was 44.3%, the GI50 (HCT-15) was 1750 nM and the Activity (KB 3-1 [9]) was “Active”. The CC50 (NCI/ADR-RES) was greater than 100 µM, the TGI (UACC-257) was 3.26 µM and the GI50 (HCC 2998) was 2500 nM. The TGI (HL-60) was 6.09 µM, the Activity (MDA-MB-231) was 11.7% and the CC50 (A498) was 31.6 µM. For the same compound, the TGI (OVCAR-8) was 8.97 µM, the CC50 (T47D [10]) was greater than 100 µM and the Activity (CCRF-CEM [11]) was 1.25%. The TGI (NCI-H322M [12]) was 3.13 µM, the Ratio [13] was 1.28 and the TGI (T47D [14]) was 13 µM. The Activity [15] was 67.05%, the GI50 (MDA-MB-468) was 2010 nM and the Ratio [16] was 0.465. The CC50 (TK-10) was 56.4 µM, the CC50 (LOX IMVI) was 84 µM and the IC50 (KB 3-1 [17]) was 750 nM. It also gave a TGI (CCRF-CEM [18]) greater than 100 µM.
